Assay results taken from PMC8217266 (Clinical Pharmacology and Therapeutics, 2021).
Marks after values point to notes of the source that are not given here.

How the values were obtained:
human OAT3 [1] = target: T1, human OAT3 (Homo sapiens, UniProt Q8TCC7); settings: human
T1 sequence (Q8TCC7 1-542): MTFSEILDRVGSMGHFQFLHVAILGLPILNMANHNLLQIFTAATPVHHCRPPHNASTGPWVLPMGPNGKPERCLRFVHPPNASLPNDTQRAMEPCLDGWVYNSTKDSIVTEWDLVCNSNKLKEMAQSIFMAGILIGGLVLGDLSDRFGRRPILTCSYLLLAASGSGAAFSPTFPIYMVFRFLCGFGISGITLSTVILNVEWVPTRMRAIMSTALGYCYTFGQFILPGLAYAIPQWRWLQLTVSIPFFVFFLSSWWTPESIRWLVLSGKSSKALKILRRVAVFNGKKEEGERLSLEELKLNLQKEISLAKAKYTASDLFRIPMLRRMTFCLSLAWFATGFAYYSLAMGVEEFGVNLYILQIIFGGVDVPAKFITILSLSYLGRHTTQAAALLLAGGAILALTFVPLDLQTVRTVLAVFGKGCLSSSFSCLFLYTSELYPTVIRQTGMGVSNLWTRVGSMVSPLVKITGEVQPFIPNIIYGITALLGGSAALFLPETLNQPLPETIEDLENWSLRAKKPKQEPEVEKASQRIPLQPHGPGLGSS

human OATP2B1 = target: T2, human OATP2B1 (Homo sapiens, UniProt O94956); experiment: cell-based; settings: IC50 OATP2B1, experimental, mean ± SD; stable cells; substrate ES
T2 sequence (O94956 1-709): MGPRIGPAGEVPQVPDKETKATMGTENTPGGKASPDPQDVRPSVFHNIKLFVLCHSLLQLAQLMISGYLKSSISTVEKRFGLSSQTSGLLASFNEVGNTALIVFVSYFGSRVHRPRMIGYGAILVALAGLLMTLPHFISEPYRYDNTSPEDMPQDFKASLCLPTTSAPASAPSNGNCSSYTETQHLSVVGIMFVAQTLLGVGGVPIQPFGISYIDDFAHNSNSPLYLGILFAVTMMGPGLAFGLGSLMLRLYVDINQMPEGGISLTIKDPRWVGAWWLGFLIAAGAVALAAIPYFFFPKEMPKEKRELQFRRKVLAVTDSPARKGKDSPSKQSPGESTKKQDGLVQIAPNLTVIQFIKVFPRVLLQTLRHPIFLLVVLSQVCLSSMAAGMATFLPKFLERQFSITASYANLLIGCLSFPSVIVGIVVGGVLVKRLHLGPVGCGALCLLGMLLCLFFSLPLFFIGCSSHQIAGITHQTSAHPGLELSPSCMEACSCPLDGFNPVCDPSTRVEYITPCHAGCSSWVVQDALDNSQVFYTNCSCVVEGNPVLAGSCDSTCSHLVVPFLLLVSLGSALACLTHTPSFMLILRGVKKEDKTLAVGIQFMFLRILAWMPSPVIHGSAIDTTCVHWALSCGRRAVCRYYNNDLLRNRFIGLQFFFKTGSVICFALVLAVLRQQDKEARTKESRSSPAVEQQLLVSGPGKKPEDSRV

BCRP [2] = target: T3, BCRP (Homo sapiens, UniProt Q9UNQ0); experiment: biochemical
T3 sequence (Q9UNQ0 1-655): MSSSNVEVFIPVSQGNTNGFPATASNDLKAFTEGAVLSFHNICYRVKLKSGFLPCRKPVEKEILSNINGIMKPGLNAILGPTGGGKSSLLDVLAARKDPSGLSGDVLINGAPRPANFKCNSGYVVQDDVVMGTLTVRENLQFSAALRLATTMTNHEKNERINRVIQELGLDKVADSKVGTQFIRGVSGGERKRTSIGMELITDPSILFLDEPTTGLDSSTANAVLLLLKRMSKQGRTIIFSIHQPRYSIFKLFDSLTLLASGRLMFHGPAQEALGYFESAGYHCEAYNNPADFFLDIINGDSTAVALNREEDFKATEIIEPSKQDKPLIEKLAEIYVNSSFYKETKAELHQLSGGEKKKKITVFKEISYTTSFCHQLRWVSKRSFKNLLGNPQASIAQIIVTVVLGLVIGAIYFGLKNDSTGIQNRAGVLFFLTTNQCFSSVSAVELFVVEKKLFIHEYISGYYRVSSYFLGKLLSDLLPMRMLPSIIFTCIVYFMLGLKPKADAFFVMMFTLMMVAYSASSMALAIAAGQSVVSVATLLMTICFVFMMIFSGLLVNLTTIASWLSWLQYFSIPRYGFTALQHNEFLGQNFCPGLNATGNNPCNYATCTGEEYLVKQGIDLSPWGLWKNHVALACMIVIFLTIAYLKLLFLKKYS

[3] = test system: transporters at major organ sites; experiment: Prediction of transporter-mediated inhibition / DDI potential; parameters: species or system human; settings: of 11 transporters; FDA criteria
human OCT1 [4] = target: T4, human OCT1 (Homo sapiens, UniProt O15245); experiment: cell-based
T4 sequence (O15245 1-554): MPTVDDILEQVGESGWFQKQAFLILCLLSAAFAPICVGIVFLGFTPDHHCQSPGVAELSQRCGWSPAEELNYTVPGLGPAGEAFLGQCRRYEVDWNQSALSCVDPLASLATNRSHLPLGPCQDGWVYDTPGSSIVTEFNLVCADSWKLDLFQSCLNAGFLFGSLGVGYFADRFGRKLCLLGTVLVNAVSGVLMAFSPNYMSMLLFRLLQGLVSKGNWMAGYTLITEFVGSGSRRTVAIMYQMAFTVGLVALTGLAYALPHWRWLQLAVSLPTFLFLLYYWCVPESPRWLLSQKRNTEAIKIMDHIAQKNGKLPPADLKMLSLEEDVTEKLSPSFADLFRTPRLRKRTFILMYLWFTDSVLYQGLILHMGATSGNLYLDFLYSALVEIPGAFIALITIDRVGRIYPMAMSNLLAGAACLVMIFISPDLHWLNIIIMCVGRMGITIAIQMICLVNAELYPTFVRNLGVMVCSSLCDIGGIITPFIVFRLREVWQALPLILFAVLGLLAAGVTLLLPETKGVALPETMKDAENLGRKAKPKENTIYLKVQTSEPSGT

human OATP1B1 = target: T5, human OATP1B1 (Homo sapiens, UniProt Q9Y6L6); settings: inhibits EG at one-tenth (or lower) the concentration that inhibits ES
T5 sequence (Q9Y6L6 1-691): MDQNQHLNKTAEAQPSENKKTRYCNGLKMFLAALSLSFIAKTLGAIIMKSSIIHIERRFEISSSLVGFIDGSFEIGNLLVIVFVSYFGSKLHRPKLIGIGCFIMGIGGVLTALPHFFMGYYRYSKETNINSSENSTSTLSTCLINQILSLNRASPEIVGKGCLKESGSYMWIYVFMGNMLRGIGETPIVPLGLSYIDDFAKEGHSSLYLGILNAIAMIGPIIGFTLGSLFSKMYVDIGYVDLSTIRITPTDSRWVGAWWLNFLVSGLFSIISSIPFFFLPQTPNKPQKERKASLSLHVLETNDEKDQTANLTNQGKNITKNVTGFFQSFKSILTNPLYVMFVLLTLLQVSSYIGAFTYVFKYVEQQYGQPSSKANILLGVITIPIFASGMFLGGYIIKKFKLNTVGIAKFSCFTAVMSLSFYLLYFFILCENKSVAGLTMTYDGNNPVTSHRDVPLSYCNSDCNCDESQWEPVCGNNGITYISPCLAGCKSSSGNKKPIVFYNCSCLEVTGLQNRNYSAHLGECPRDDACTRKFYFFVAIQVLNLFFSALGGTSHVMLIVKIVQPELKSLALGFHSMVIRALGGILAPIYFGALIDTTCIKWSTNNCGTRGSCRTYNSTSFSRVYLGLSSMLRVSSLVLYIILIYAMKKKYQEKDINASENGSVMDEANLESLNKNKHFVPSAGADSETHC

human MATE2 = human MATE2 (Homo sapiens, UniProt Q86VL8); experiment: cell-based
Chain of human MATE2 (Q86VL8 1-566 isoform Q86VL8-3): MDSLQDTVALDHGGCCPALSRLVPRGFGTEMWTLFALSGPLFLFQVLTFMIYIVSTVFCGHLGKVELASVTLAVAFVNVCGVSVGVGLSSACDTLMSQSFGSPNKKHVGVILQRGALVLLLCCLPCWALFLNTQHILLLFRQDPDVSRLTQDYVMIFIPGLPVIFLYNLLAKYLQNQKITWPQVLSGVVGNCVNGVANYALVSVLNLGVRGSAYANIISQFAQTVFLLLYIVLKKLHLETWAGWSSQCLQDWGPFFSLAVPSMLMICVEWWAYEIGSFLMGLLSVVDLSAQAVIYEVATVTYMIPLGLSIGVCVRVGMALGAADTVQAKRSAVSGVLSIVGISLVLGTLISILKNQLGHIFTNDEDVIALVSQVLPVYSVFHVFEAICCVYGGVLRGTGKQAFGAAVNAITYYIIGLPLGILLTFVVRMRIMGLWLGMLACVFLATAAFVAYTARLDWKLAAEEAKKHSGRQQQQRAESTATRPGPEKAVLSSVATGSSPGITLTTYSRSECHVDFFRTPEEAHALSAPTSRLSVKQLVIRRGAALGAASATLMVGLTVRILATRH

P-gp = P-gp (Homo sapiens, UniProt P08183); experiment: biochemical
Chain of P-gp (P08183 whole entry): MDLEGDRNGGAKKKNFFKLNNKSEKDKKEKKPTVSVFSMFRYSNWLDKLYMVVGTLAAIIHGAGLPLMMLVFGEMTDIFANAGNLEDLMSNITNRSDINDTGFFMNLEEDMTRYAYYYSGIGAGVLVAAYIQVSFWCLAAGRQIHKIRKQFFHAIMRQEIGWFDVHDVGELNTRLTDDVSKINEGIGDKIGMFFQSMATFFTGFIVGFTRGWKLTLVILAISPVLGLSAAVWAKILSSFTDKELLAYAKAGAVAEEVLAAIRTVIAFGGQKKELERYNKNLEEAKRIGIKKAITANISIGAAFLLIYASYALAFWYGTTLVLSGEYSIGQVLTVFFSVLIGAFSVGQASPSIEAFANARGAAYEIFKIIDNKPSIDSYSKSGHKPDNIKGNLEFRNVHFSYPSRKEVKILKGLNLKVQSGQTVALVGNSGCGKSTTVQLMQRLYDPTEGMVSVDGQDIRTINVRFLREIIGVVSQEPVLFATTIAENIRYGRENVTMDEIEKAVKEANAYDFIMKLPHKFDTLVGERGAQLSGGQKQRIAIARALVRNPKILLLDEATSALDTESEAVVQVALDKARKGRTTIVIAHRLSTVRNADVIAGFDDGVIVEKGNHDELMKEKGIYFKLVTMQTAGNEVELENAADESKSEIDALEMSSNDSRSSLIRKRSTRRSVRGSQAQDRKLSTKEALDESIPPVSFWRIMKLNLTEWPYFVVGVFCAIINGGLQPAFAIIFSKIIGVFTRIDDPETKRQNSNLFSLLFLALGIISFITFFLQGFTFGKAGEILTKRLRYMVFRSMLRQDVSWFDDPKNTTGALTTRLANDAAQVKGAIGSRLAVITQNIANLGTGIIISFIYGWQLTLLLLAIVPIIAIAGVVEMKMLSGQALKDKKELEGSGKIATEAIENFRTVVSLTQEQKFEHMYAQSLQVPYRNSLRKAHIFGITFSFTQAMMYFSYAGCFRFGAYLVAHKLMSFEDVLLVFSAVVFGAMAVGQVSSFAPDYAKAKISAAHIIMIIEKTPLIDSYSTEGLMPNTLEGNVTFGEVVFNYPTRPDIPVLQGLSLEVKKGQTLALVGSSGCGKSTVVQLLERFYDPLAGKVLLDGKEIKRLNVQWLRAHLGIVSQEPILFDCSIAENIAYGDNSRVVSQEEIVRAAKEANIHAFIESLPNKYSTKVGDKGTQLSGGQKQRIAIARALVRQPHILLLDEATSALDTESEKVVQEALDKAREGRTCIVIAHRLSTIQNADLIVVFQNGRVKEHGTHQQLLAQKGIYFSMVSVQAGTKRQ

human MATE1 = target: T6, human MATE1 (Homo sapiens, UniProt Q96FL8); experiment: cell-based
T6 sequence (Q96FL8 1-570): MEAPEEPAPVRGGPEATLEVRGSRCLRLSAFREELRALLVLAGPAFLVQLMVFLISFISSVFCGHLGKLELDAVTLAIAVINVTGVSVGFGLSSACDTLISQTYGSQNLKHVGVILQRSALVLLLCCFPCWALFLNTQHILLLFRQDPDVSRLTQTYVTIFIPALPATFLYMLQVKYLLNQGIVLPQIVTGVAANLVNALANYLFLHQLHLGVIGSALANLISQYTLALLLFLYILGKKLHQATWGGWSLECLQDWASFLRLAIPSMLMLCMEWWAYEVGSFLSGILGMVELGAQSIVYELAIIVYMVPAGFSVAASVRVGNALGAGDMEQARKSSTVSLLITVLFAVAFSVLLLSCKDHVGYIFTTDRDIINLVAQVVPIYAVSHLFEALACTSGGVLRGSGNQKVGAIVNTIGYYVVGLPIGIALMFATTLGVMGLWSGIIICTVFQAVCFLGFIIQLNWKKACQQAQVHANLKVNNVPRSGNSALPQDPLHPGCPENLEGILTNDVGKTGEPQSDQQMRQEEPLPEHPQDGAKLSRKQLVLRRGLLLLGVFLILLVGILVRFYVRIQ

human OAT1 = target: T7, human OAT1 (Homo sapiens, UniProt Q4U2R8); experiment: cell-based
T7 sequence (Q4U2R8 1-563): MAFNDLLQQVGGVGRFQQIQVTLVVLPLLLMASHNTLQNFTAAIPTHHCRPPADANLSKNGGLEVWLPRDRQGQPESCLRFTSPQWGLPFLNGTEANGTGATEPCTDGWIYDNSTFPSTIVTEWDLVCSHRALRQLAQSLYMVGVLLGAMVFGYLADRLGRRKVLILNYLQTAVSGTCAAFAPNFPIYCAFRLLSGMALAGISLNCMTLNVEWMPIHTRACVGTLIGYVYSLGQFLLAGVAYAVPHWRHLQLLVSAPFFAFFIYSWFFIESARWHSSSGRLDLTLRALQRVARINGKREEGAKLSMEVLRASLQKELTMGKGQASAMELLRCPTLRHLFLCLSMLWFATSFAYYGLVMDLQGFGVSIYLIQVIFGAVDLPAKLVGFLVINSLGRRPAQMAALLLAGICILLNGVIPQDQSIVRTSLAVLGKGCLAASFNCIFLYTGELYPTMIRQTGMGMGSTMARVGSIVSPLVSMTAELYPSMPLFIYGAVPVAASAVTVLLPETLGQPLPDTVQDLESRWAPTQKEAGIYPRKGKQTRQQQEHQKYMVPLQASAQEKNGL

BCRP [5] = target: T3, BCRP; settings: cited from earlier work
human OAT3 [6] = target: T1, human OAT3; experiment: cell-based
[7] = known in vivo P-gp inhibitor; cited from earlier work
human OCT1 [8] = target: T4, human OCT1; settings: human

| Structure (SMILES) | Cu,max/IC50 OAT3 (human OAT3 [1]) | IC50 (human OATP2B1) [µM] | IC50 (BCRP [2]) [µM] | No. of transporters at major organ sites inhibited at clinical concentrations [3] | IC50 (human OCT1 [4]) [µM] | potency difference of the inhibitor for [3H]-EG vs [3H]-ES as OATP1B1 probes (human OATP1B1) [fold] | IC50 (human MATE2) [µM] | IC50 (P-gp) [µM] | IC50 (human MATE1) [µM] | IC50 (human OAT1) [µM] | inhibition of BCRP (in words) (BCRP [5]) | IC50 (human OAT3 [6]) [µM] | effect on plasma levels of P-gp substrates [7] | Iu,in,max/IC50 OCT1 (human OCT1 [8]) |
| --- | --- | --- | --- | --- | --- | --- | --- | --- | --- | --- | --- | --- | --- | --- |
| CCCCc1nc(Cl)c(CO)n1Cc1ccc(-c2ccccc2-c2nn[nH]n2)cc1 [Losartan] | 0.02 ^a | 2.5 ± 0.7 | 4.8 ± 1.1 | 4 | > 100 | > 10 | > 100 | > 100 | – | – | – | – | – | – |
| Cc1oncc1C(=O)Nc1ccc(C(F)(F)F)cc1 [Leflunomide] | – | 81.9 ± 36.1 | – | 2 | > 100 | – | – | > 100 | 9.5 ± 5.5 | > 100 | – | – | – | – |
| CN1CC(=O)N2[C@H](c3ccc4c(c3)OCO4)c3[nH]c4ccccc4c3C[C@@H]2C1=O [tadalafil] | – | – | – | – | – | – | – | – | – | – | weak inhibitors of BCRP | – | – | – |
| CC[C@H]1OC(=O)[C@H](C)[C@@H](O[C@H]2C[C@@](C)(OC)[C@@H](O)[C@H](C)O2)[C@H](C)[C@@H](O[C@@H]2O[C@H](C)C[C@H](N(C)C)[C@H]2O)[C@](C)(O)C[C@@H](C)CN(C)[C@H](C)[C@@H](O)[C@]1(C)O [Azithromycin] | – | – | > 50 | 1 | > 50 | – | > 50 | 18 | > 50 | > 50 | – | > 50 | increases plasma levels of the non‐sedating antihistamine, fexofenadine, and the anticoagulant, ximelagatran | – |
| COc1ccc2cc1Oc1ccc(cc1)C[C@H]1c3cc(c(OC)cc3CCN1C)Oc1c(OC)c(OC)cc3c1[C@H](C2)N(C)CC3 [Tetrandrine] | – | – | > 10 | 1 | 8.6 | – | > 10 | 3.8 ± 1.1 | 1.2 ± 0.2 | > 10 | – | > 10 | – | 0.02 |
| CCCc1nc(C)c2c(=O)[nH]c(-c3cc(S(=O)(=O)N4CCN(CC)CC4)ccc3OCC)nn12 [vardenafil] | – | – | – | – | – | – | – | – | – | – | weak inhibitors of BCRP | – | – | – |
